Target: T1, human LXRβ (Homo sapiens, UniProt P55055)
T1 construct: expressed in transfected cells; host or cells: HEK293 cells (ATCC CRL-1573), transient transfection with pFA-hLXRβ/GAL4 and pUAS
T1 sequence (P55055 222-460 limits assumed): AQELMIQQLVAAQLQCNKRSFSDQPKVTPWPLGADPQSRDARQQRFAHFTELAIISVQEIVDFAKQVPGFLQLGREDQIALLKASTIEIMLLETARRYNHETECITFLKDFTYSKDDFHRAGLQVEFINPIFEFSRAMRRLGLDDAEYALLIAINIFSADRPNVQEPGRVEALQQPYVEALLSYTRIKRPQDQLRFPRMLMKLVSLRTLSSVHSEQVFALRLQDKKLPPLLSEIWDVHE
Assay: Assay for Transcriptional Activity of LXRβ (GAL4-hLXRβ LBD luciferase reporter, transient transfection)
Assay type: cell-based
Conditions: HEK293 cells transfected with pFA-hLXRβ/GAL4 and pUAS, 24 hours; for Emax: fold value in comparison with the control (DMSO-treated group); for EC50: increase of transcriptional activity of LXRβ, average of three independent tests
Outline: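 HEK293 cells transiently co-transfected with GAL4-hLXRβ LBD and 5×GAL4-UAS luciferase reporter, treated 24 h at 37 °C with compounds over 9 points (0.01–50 μM, half-log). Luminescence read after lysis; EC50 from four-parameter fit, mean of three independent tests, with a known LXR agonist as positive control.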

Row | Compound | Emax [fold] | EC50 [µM]
1 | CS(=O)(=O)N1CCN(c2ccc(C3CC(C(O)(C(F)(F)F)C(F)(F)F)=NN3c3ccccc3Cl)cn2)CC1 (centres unmarked) [Example 360, 1-(2-chloro-phenyl)-5-[6-(4-methanesulfonyl-piperazin-1-yl)-pyridin-3-yl]-3-[di-(trifluoromethyl)-hydroxy-methyl]-4,5-dihydro-1H-pyrazole] | 45 | 10.2
2 | CC(=O)c1cccc(-c2ccc(C3CC(C(O)(C(F)(F)F)C(F)(F)F)=NN3c3ccccc3Cl)cc2F)c1 (centres unmarked) [Example 361, 5-(3′-acetyl-2-fluoro-biphenyl-4-yl)-1-(2-chloro-phenyl)-3-[di-(trifluoromethyl)-hydroxy-methyl]-4,5-dihydro-1H-pyrazole] | 39 | 0.632
3 | CC(=O)c1ccc(-c2ccc(C3CC(C(O)(C(F)(F)F)C(F)(F)F)=NN3c3ccccc3Cl)cc2F)cc1 (centres unmarked) [Example 362, 5-(4′-acetyl-2-fluoro-biphenyl-4-yl)-1-(2-chloro-phenyl)-3-[di-(trifluoromethyl)-hydroxy-methyl]-4,5-dihydro-1H-pyrazole] | 72 | 0.58
4 | COc1ccc(-c2ccc(C3CC(C(O)(C(F)(F)F)C(F)(F)F)=NN3c3ccccc3Cl)cc2F)cc1 (centres unmarked) [Example 363, 1-(2-chloro-phenyl)-5-(2-fluoro-4′-methoxy-biphenyl-4-yl)-3-[di-(trifluoromethyl)-hydroxy-methyl]-4,5-dihydro-1H-pyrazole] | 50 | 1.21
5 | CS(=O)(=O)c1ccc(-c2ccc(C3CC(C(O)(C(F)(F)F)C(F)(F)F)=NN3c3ccccc3Cl)cc2F)cc1 (centres unmarked) [Example 365, 1-(2-chloro-phenyl)-5-(2-fluoro-4′-methylsulfonyl-biphenyl-4-yl)-3-[di-(trifluoromethyl)-hydroxy-methyl]-4,5-dihydro-1H-pyrazole] | 68 | 0.283
6 | CC(C)Oc1ccccc1-c1ccc(C2CC(C(O)(C(F)(F)F)C(F)(F)F)=NN2c2ccccc2Cl)cc1F (centres unmarked) [Example 367, 1-(2-chloro-phenyl)-5-(2-fluoro-2′-isopropoxy-biphenyl-4-yl)-3-[di-(trifluoromethyl)-hydroxy-methyl]-4,5-dihydro-1H-pyrazole] | 59 | 0.312
7 | COc1ccc(-c2ccc(C3CC(C(O)(C(F)(F)F)C(F)(F)F)=NN3c3ccccc3Cl)cc2F)cn1 (centres unmarked) [Example 368, 1-(2-chloro-phenyl)-5-[3-fluoro-4-(6-methoxy-pyridin-3-yl)-phenyl]-3-[di-(trifluoromethyl)-hydroxy-methyl]-4,5-dihydro-1H-pyrazole] | 57 | 1.92
8 | CSc1cccc(-c2ccc(C3CC(C(O)(C(F)(F)F)C(F)(F)F)=NN3c3ccc(F)cc3F)cc2)c1 (centres unmarked) [Example 369, 1-(2,4-difluoro-phenyl)-5-(3′-methylsulfanyl-biphenyl-4-yl)-3-[di-(trifluoromethyl)-hydroxy-methyl]-4,5-dihydro-1H-pyrazole] | 28 | 0.666
9 | COc1ccc(-c2ccc(C3CC(C(O)(C(F)(F)F)C(F)(F)F)=NN3c3ccc(F)cc3F)cc2)cn1 (centres unmarked) [Example 370, 1-(2,4-difluoro-phenyl)-5-(4-(6-methoxy-pyridin-3-yl)-phenyl)-3-[di-(trifluoromethyl)-hydroxy-methyl]-4,5-dihydro-1H-pyrazole] | 36 | 0.821
10 | Cc1ccccc1-c1ccc(C2CC(C(O)(C(F)(F)F)C(F)(F)F)=NN2c2ccc(F)cc2F)cc1 (centres unmarked) [Example 371, 1-(2,4-difluoro-phenyl)-5-(2′-methyl-biphenyl-4-yl)-3-[di-(trifluoromethyl)-hydroxy-methyl]-4,5-dihydro-1H-pyrazole] | 34 | 0.636
11 | OC(C1=NN(c2ccc(F)cc2F)C(c2ccc(-c3cncnc3)cc2)C1)(C(F)(F)F)C(F)(F)F (centres unmarked) [Example 372, 1-(2,4-difluoro-phenyl)-5-(4-pyrimidin-5-yl-phenyl)-3-[di-(trifluoromethyl)-hydroxy-methyl]-4,5-dihydro-1H-pyrazole] | 42 | 0.412
12 | OC(C1=NN(c2ccc(F)cc2F)C(c2ccc(-c3ccc(-n4cnnn4)cc3)cc2)C1)(C(F)(F)F)C(F)(F)F (centres unmarked) [Example 373, 1-(2,4-difluoro-phenyl)-5-(4′-tetrazol-1-yl-biphenyl-4-yl)-3-[di-(trifluoromethyl)-hydroxy-methyl]-4,5-dihydro-1H-pyrazole] | 39 | 0.551
13 | Cn1c(-c2ccc(C3CC(C(O)(C(F)(F)F)C(F)(F)F)=NN3c3ccc(F)cc3F)cc2)cc2ccccc21 (centres unmarked) [Example 374, 1-(2,4-difluoro-phenyl)-5-[4-(1-methyl-1H-indol-2-yl)-phenyl]-3-[di-(trifluoromethyl)-hydroxy-methyl]-4,5-dihydro-1H-pyrazole] | 60 | 0.678
14 | Cc1ncccc1-c1ccc(C2CC(C(O)(C(F)(F)F)C(F)(F)F)=NN2c2ccc(F)cc2F)cc1 (centres unmarked) [Example 376, 1-(2,4-difluoro-phenyl)-5-(4-(2-methyl-pyridin-3-yl)-phenyl)-3-[di-(trifluoromethyl)-hydroxy-methyl]-4,5-dihydro-1H-pyrazole] | 39 | 0.325
15 | OC(C1=NN(c2ccc(F)cc2F)C(c2ccc(-c3ccc(C(F)(F)F)nc3)cc2)C1)(C(F)(F)F)C(F)(F)F (centres unmarked) [Example 377, 1-(2,4-difluoro-phenyl)-5-[4-(6-trifluoromethyl-pyridin-3-yl)-phenyl]-3-[di-(trifluoromethyl)-hydroxy-methyl]-4,5-dihydro-1H-pyrazole] | 15 | 0.89
16 | CCOC(=O)c1cncc(-c2ccc(C3CC(C(O)(C(F)(F)F)C(F)(F)F)=NN3c3ccc(F)cc3F)cc2)c1 (centres unmarked) [Example 378] | 30 | 0.744
17 | COc1ncc(-c2ccc(C3CC(C(O)(C(F)(F)F)C(F)(F)F)=NN3c3ccc(F)cc3F)cc2)cc1C=O (centres unmarked) [Example 379, 1-(2,4-difluoro-phenyl)-5-[4-(5-formyl-6-methoxy-pyridin-3-yl)-phenyl)-3-[di-(trifluoromethyl)-hydroxy-methyl]-4,5-dihydro-1H-pyrazole] | 35 | 0.745
18 | N#Cc1ncccc1-c1ccc(C2CC(C(O)(C(F)(F)F)C(F)(F)F)=NN2c2ccc(F)cc2F)cc1 (centres unmarked) [Example 380, 5-[4-(2-cyano-pyridin-3-yl)-phenyl)-1-(2,4-difluoro-phenyl)-3-[di-(trifluoromethyl)-hydroxy-methyl]-4,5-dihydro-1H-pyrazole] | 38 | 0.45
19 | OC(C1=NN(c2ccc(F)cc2F)C(c2ccc(-c3cncc(F)c3)cc2)C1)(C(F)(F)F)C(F)(F)F (centres unmarked) [Example 381, 1-(2,4-difluoro-phenyl)-5-[4-(5-fluoro-pyridin-3-yl)-phenyl)-3-[di-(trifluoromethyl)-hydroxy-methyl]-4,5-dihydro-1H-pyrazole] | 50 | 0.448
20 | CSc1ccc(-c2ccc(C3CC(C(O)(C(F)(F)F)C(F)(F)F)=NN3c3ccc(F)cc3F)cc2)cn1 (centres unmarked) [Example 382, 1-(2,4-difluoro-phenyl)-5-[4-(6-methanesulfanyl-pyridin-3-yl)-phenyl]-3-[di-(trifluoromethyl)-hydroxy-methyl]-4,5-dihydro-1H-pyrazole] | 44 | 0.772
21 | COc1cc(C)c(-c2ccc(C3CC(C(O)(C(F)(F)F)C(F)(F)F)=NN3c3ccc(F)cc3F)cc2)cn1 (centres unmarked) [Example 383, 1-(2,4-difluoro-phenyl)-5-[4-(6-methoxy-4-methyl-pyridin-3-yl)-phenyl]-3-[di-(trifluoromethyl)-hydroxy-methyl]-4,5-dihydro-1H-pyrazole] | 49 | 0.368
22 | Cc1cc(F)ncc1-c1ccc(C2CC(C(O)(C(F)(F)F)C(F)(F)F)=NN2c2ccc(F)cc2F)cc1 (centres unmarked) [Example 384, 1-(2,4-difluoro-phenyl)-5-[4-(6-fluoro-4-methyl-pyridin-3-yl)-phenyl]-3-[di-(trifluoromethyl)-hydroxy-methyl]-4,5-dihydro-1H-pyrazole] | 46 | 0.094
23 | OC(C1=NN(c2ccc(F)cc2F)C(c2ccc(-c3ccccn3)cc2)C1)(C(F)(F)F)C(F)(F)F (centres unmarked) [Example 385, 1-(2,4-difluoro-phenyl)-5-[4-pyridin-2-yl-phenyl]-3-[di-(trifluoromethyl)-hydroxy-methyl]-4,5-dihydro-1H-pyrazole] | 60 | 0.771
24 | CN(CCO)S(=O)(=O)c1ccc(-c2ccc(C3CC(C(O)(C(F)(F)F)C(F)(F)F)=NN3c3ccc(F)cc3F)cc2)cc1 (centres unmarked) [Example 386, 1-(2,4-difluoro-phenyl)-5-{4′-[(2-hydroxy-ethyl)-methyl-sulfamoyl]-biphenyl-4-yl}-3-[di-(trifluoromethyl)-hydroxy-methyl]-4,5-dihydro-1H-pyrazole] | 35 | 0.17
25 | CS(=O)(=O)c1ccc(-c2ccc(C3CC(C(O)(C(F)(F)F)C(F)(F)F)=NN3c3ccc(F)cc3F)cc2)cc1F (centres unmarked) [Example 387, 1-(2,4-difluoro-phenyl)-5-(3′-fluoro-4′-methanesulfonyl-biphenyl-4-yl)-3-[di-(trifluoromethyl)-hydroxy-methyl]-4,5-dihydro-1H-pyrazole] | 27 | 0.047
